Experimental data from patent US12577250B2, “1,2,4-triazolone derivative as DHODH inhibitor, and preparation method therefor and use thereof” (WIGEN BIOMEDICINE TECHNOLOGY (SHANGHAI) CO., LTD., priority 2021, dated 2026).
Read-outs that look alike come from different tables or passages of the source.

How the values were obtained:
[1] = test system: MV-4-11 cells; test: Anti-proliferative activity on MV-4-11 cells (CellTiter-Lumi, 72 h); type: cell-based; conditions: Homo sapiens, MV4-11, 72 h, read-out: Cell anti-proliferative activity IC50 MV-4-11
Experimental: MV-4-11 cells were seeded into a 384-well plate (Fisher 142762) at 3000 cells per well. The next day, serially diluted compounds were added, and 72 h after the addition, CellTiter-Lumi (Beyotime C0068XL) was added to measure the ATP content in the cells. The growth of the cells was evaluated, and IC50 of the compounds against cell growth was calculated.

[2] = biological target: DHODH (Homo sapiens, UniProt Q02127); test: Assay against enzyme activity of DHODH (DCIP absorption at 600 nm); type: biochemical
Chain of DHODH (Q02127 whole entry): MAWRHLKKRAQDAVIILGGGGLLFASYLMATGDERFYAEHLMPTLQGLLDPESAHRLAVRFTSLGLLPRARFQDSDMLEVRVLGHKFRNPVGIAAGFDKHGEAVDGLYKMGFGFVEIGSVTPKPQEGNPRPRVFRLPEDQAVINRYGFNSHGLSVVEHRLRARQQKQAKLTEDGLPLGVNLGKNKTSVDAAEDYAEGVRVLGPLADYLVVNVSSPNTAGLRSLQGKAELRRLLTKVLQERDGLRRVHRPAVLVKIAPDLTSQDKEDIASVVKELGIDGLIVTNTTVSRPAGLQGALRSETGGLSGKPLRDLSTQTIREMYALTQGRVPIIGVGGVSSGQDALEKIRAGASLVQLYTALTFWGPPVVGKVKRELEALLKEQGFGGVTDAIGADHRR
Experimental: The enzyme activity of DHODH was assayed through a cascade reaction to determine its ability to catalyze the oxidation of a natural substrate DHO (dihydroorotic acid) to orotic acid while reducing coenzyme Q. The enzyme activity of DHODH was indirectly detected by assaying the ability of the coenzyme Q to reduce a chromogenic substrate DCIP. After the compound and an enzyme reaction mixture were incubated for 5 min, a reaction substrate DHO was added to start the reaction, and the enzyme activity was assayed by assaying the absorption at 600 nm to detect the DCIP exhaustion in a timed manner.

IC50 [1] | IC50 [2] | IC50 ([1]; class symbols) | SMILES
4.56 nM | – | – | C[C@H](Oc1cc(-n2nc3n(c2=O)CCC2(CC2)C3)c(F)cc1C(=O)Nc1ccccc1F)C(F)(F)F [Compound 2]
5.45 nM | < 50 nM | – | C[C@H](Oc1cc(-n2nc3n(c2=O)CCC2(CC2)C3)c(F)cc1C(=O)Nc1ccccc1C(F)(F)F)C(F)(F)F [Compound 3]
– | < 50 nM | ≤ 50 nM | C[C@H](Oc1cc(-n2nc3n(c2=O)CCC2(CC2)C3)c(F)cc1C(=O)Nc1ccccc1C(F)F)C(F)(F)F [Compound 4]
– | < 50 nM | ≤ 50 nM | Cc1ccccc1NC(=O)c1cc(F)c(-n2nc3n(c2=O)CCC2(CC2)C3)cc1O[C@@H](C)C(F)(F)F [Compound 5]
– | < 50 nM | ≤ 50 nM | CCc1ccccc1NC(=O)c1cc(F)c(-n2nc3n(c2=O)CCC2(CC2)C3)cc1O[C@@H](C)C(F)(F)F [Compound 6]
– | < 50 nM | ≤ 50 nM | Cc1cccc(NC(=O)c2cc(F)c(-n3nc4n(c3=O)CCC3(CC3)C4)cc2O[C@@H](C)C(F)(F)F)c1 [Compound 7]
– | < 50 nM | ≤ 50 nM | C[C@H](Oc1cc(-n2nc3n(c2=O)CCC2(CC2)C3)c(F)cc1C(=O)Nc1cccc(Cl)c1)C(F)(F)F [Compound 8]
– | < 50 nM | ≤ 50 nM | C[C@H](Oc1cc(-n2nc3n(c2=O)CCC2(CC2)C3)c(F)cc1C(=O)Nc1cccc(F)c1)C(F)(F)F [Compound 9]
2.24 nM | – | – | C[C@H](Oc1cc(-n2nc3n(c2=O)CCC2(CC2)C3)c(F)cc1C(=O)Nc1c(F)cccc1F)C(F)(F)F [Compound 10]
2.13 nM | – | – | Cc1cccc(F)c1NC(=O)c1cc(F)c(-n2nc3n(c2=O)CCC2(CC2)C3)cc1O[C@@H](C)C(F)(F)F [Compound 11]
1.45 nM | < 50 nM | – | Cc1cccc(Cl)c1NC(=O)c1cc(F)c(-n2nc3n(c2=O)CCC2(CC2)C3)cc1O[C@@H](C)C(F)(F)F [Compound 12]
1.56 nM | < 50 nM | – | C[C@H](Oc1cc(-n2nc3n(c2=O)CCC2(CC2)C3)c(F)cc1C(=O)Nc1c(Cl)cccc1Cl)C(F)(F)F [Compound 13]
– | < 50 nM | ≤ 50 nM | C[C@H](Oc1cc(-n2nc3n(c2=O)CCC2(CC2)C3)c(F)cc1C(=O)Nc1c(F)cccc1C(F)(F)F)C(F)(F)F [Compound 14]
3.42 nM | – | – | COc1cccc(C)c1NC(=O)c1cc(F)c(-n2nc3n(c2=O)CCC2(CC2)C3)cc1O[C@@H](C)C(F)(F)F [Compound 15]
– | < 50 nM | ≤ 50 nM | Cc1cccc(C(F)(F)F)c1NC(=O)c1cc(F)c(-n2nc3n(c2=O)CCC2(CC2)C3)cc1O[C@@H](C)C(F)(F)F [Compound 16]
– | – | ≤ 50 nM | Cc1cccc(N)c1NC(=O)c1cc(F)c(-n2nc3n(c2=O)CCC2(CC2)C3)cc1O[C@@H](C)C(F)(F)F [Compound 17]
– | – | ≤ 50 nM | COc1cccc(C)c1NC(=O)c1cc(F)c(-n2nc3n(c2=O)CCC2(CC2)C3)cc1O[C@@H](C)C(F)(F)F [Compound 18]
– | < 50 nM | ≤ 50 nM | Cc1ccc(F)c(NC(=O)c2cc(F)c(-n3nc4n(c3=O)CCC3(CC3)C4)cc2O[C@@H](C)C(F)(F)F)c1 [Compound 19]
– | < 50 nM | ≤ 50 nM | C[C@H](Oc1cc(-n2nc3n(c2=O)CCC2(CC2)C3)c(F)cc1C(=O)Nc1cc(Cl)ccc1F)C(F)(F)F [Compound 20]
– | < 50 nM | ≤ 50 nM | C[C@H](Oc1cc(-n2nc3n(c2=O)CCC2(CC2)C3)c(F)cc1C(=O)Nc1ccc(F)cc1Cl)C(F)(F)F [Compound 21]
– | < 50 nM | ≤ 50 nM | Cc1cc(F)ccc1NC(=O)c1cc(F)c(-n2nc3n(c2=O)CCC2(CC2)C3)cc1O[C@@H](C)C(F)(F)F [Compound 22]
– | < 50 nM | ≤ 50 nM | Cc1c(F)cccc1NC(=O)c1cc(F)c(-n2nc3n(c2=O)CCC2(CC2)C3)cc1O[C@@H](C)C(F)(F)F [Compound 23]
– | < 50 nM | ≤ 50 nM | Cc1c(Cl)cccc1NC(=O)c1cc(F)c(-n2nc3n(c2=O)CCC2(CC2)C3)cc1O[C@@H](C)C(F)(F)F [Compound 24]
